In general, EC50 refers to the concentration at which the effect is half-maximal.

This experiment addresses T1, E. coli K12 PBP1b (Escherichia coli, UniProt P02919).
T1 construct: made in house
Description: Radioligand competition binding assay with 14C-labeled boronic acid probe, E. coli PBP1b. Particulars: competition binding assay using 14C-labeled boronic acid probe; read-out: E. coli K12 PBP1b EC50. From the text:
Example II: Experimental Method to Assess Binding to Penicillin-Binding Proteins: Radioligand Competition Binding Assay
To determine the ability of boronic acid-based test PBP inhibitors to bind Penicillin Binding Proteins (PBPs), a radio-labelled boronic acid PBP inhibitor:
was used in competition binding assays to determine boronic acid PBP inhibitor binding to PBP1a or PBP1b from Escherichia coli. PBP1a and PBP1b were purified as described previously (Bertsche, U.; et al., J Biol. Chem. 2005, 280 (45), 38096-38101; Born, P.; et al., J Biol. Chem. 2006. 281 (37), 26985-26993). To establish assay conditions for competition binding, an enzyme titration/saturation binding experiment was performed. Saturation binding was performed in a buffer comprised of 20 mM Tris (pH 7.5), 500 mM NaCl and 0.1% (v/v) TritonX-100, with PBP1a/PBP1b at a final concentration of 0.1 μM and Compound A at final concentrations ranging from 0-100 μM. Mixtures were incubated for 60 minutes, then applied to Zeba Spin Desalting columns or plates (ThermoFisher Scientific) and centrifuged at 1000-1500×g for 2 minutes. The flow through, containing PBP bound with Compound A, was recovered and 100 μL mixed with 5 mL of UltimaGold liquid scintillation cocktail (Perkin Elmer), and the radioactivity counted using a Beckman Coulter LS 6500 Multipurpose scintillation counter. PBP binding of Compound A approached saturation at 20 μM of ^14C-labeled probe. The competition binding assay was validated using the beta-lactam ampicillin, with Compound A at a final concentration of 20 μM, PBP1a/PBP1b at a final concentration of 0.1 μM. PBP1a/PBP1b was incubated with ampicillin in a 96-well microplate for 60 minutes, then Compound A was added and the mixtures incubated for an additional 60 minutes. The mixtures were then applied to Zeba Spin desalting plates and centrifuged at 1000×g for 2 minutes. The flow through was recovered and 100 μl mixed with 5 ml of UltimaGold liquid scintillation cocktail and the radioactivity counted. […] Binding assays with boronic acid PBP inhibitors were performed in an identical fashion. […]

SMILES strings stand for the structures. Where only a bound is given, the exact number is not on record here.

T1 sequence (P02919 whole entry): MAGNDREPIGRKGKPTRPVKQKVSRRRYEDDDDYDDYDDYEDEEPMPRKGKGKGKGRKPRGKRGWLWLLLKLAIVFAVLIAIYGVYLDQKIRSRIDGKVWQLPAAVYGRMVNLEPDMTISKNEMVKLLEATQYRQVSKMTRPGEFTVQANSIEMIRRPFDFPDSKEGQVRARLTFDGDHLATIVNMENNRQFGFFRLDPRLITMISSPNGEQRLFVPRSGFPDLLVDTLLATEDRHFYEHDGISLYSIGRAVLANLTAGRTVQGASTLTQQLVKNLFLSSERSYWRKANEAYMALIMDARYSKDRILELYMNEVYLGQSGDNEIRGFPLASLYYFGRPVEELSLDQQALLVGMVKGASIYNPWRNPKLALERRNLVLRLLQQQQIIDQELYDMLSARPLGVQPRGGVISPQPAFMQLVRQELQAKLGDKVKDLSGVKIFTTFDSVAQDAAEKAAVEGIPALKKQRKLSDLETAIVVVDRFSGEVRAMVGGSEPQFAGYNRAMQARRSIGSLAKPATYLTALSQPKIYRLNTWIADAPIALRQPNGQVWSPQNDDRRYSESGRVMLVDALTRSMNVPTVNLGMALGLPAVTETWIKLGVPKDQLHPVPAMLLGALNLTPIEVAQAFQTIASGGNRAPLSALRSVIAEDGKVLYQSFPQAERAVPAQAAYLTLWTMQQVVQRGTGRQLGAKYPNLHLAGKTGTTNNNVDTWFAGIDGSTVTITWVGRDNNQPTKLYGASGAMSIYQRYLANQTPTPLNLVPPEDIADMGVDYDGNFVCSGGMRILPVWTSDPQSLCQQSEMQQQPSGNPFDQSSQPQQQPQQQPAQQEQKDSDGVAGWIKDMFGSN

On to `CCN1CCN(C(=O)NC(C(=O)N[C@H]2Cc3ccc(S)c(C(=O)O)c3OB2O)c2csc(N)n2)C(=O)C1=O` (stereo partly drawn) [Example 54, (3R)-3-(2-(2-aminothiazol-4-yl)-2-(4-ethyl-2,3-dioxopiperazine-1-carboxamido)acetamido)-2-hydroxy-7-mercapto-3,4-dihydro-2H-benzo[e][1,2]oxaborinine-8-carboxylic acid], for which the EC50 was in the range of 10 to 100 µM.

`CCN1CCN(C(=O)NC(C(=O)N[C@H]2Cc3ccc(SCc4ccc(O)cc4)c(C(=O)O)c3OB2O)c2csc(N)n2)C(=O)C1=O` (stereo partly drawn) [Example 55, (3R)-3-(2-(2-aminothiazol-4-yl)-2-(4-ethyl-2,3-dioxopiperazine-1-carboxamido)acetamido)-2-hydroxy-7-((4-hydroxybenzyl)thio)-3,4-dihydro-2H-benzo[e][1,2]oxaborinine-8-carboxylic acid]: the EC50 is more than 100 µM.
